Here are results for eight compounds from patent US20230091225A1, “Bifunctional chimeric heterocyclic compounds for targeted degradation of androgen receptors and use thereof” (HINOVA PHARMACEUTICALS INC., priority 2019, published 2023).

Where two headings read alike, the source gives them in different places.

One assay deals with LNCaP/AR cells. Put plainly: Inhibition of proliferation of LNCaP/AR prostate cancer cells (CCK-8). The format is cell-based.
The target in another assay is T1, androgen receptor (AR) (Homo sapiens, UniProt P10275).
T1 sequence (P10275 1-920): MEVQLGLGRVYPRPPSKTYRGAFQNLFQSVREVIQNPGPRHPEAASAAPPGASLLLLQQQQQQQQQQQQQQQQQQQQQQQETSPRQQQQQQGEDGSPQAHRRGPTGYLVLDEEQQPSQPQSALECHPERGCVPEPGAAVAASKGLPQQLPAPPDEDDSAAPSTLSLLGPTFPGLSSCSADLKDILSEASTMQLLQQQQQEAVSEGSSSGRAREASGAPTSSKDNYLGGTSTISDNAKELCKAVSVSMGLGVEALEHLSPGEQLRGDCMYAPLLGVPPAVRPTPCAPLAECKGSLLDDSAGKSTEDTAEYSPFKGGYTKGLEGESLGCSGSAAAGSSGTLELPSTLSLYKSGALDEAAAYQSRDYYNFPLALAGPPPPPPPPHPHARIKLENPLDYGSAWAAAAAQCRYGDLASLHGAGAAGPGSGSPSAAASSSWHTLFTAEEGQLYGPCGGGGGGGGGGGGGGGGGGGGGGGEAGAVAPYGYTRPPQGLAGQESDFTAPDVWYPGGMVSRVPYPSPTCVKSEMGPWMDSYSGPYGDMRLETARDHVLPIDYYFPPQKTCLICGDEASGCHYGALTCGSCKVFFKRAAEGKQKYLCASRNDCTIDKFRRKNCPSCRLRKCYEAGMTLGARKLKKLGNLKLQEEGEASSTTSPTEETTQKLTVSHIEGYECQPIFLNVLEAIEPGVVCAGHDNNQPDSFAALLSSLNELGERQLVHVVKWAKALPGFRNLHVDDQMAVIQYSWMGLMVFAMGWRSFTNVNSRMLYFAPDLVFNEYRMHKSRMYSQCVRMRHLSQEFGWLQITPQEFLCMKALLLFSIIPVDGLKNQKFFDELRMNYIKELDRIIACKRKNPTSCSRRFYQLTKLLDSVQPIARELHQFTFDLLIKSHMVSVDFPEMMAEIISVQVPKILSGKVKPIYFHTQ
As to the kind of experiment: Degradation of androgen receptor (AR) protein in VCaP cells by ELISA. The conditions noted are these: for inhibition at 0.1 µM: read-out: % degradation. The format is cell-based. In general terms: ELISA stands for enzyme-linked immunosorbent assay.

[1] abbreviates: 144 h, proliferation of LNCap/AR cells, 6 days, CCK-8, read-out: IC50.
Where [2] appears, read: percentage of degraded AR at 100 nM, VCaP cells, 16 h, ELISA.
[3] abbreviates: proliferation of LNCap/AR cells, 6 days, CCK-8, read-out: IC50.

The IC50 is the concentration needed to halve the response being measured. Regarding `CC(=O)O[C@@H]1C[C@@H](C(=O)N[C@@H](C)c2ccc(-c3scnc3C)cc2)N(C(=O)[C@@H](NC(=O)COCCCCCNc2ccc(NC(=O)N[C@H]3C(C)(C)[C@H](Oc4ccc(C#N)c(Cl)c4)C3(C)C)cc2)C(C)(C)C)C1` [Compound 1, (3R,5S)-1-((S)-2-(2-((5-((4-(3-((1R,3R)-3-(3-chloro-4-cyanophenoxy)-2,2,4,4-tetramethylcyclobutyl)ureido)phenyl)amino)pentyl)oxy)acetylamino)-3,3-dimethylbutyryl)-5-(((S)-1-(4-(4-methylthiazol-5-yl))phenyl)ethyl)carbamoyl) pyrrolidin-3-yl acetate], the IC50 in the assay on LNCaP/AR cells (setting [1]) was over 1000 nM. Also, at androgen receptor (AR) (setting [2]), the inhibition at 0.1 µM was under 25%.
With `N#Cc1ccc(O[C@H]2CC[C@H](N3Cc4nc(N5CCC(CN6CCN(c7ccc8c(c7)C(=O)N(C7CCC(=O)NC7=O)C8=O)CC6)CC5)ccc4C3=O)CC2)cc1Cl` (stereo partly shown) [Compound 201], in the assay on LNCaP/AR cells (setting [1]), the IC50 was over 1000 nM. At androgen receptor (AR) (setting [2]), the inhibition at 0.1 µM fell in the range of 50 to 79%.
Taken in the same sequence, the figures for `[2H]C([2H])([2H])N(C(=O)c1ccc(C#CCCOCC(=O)N[C@H](C(=O)N2C[C@H](O)C[C@H]2C(=O)N[C@@H](C)c2ccc(-c3scnc3C)cc2)C(C)(C)C)cc1)[C@H]1C(C)(C)[C@H](Oc2ccc(C#N)c(Cl)c2)C1(C)C` [Compound 26] were under 100 nM and under 25%.
For “(2S,4R)-1-((S)-2-(2-(4-(3-(2((1s,3s)-3-(3-chloro-4-cyanophenoxy)-2,2,4,4-tetramethylcyclobutyl)-1-oxoisoindolin-5-yl)prop-2-yn-1-yl)piperidin-1-yl)acetylamino)-3,3-dimethylbutyryl)-4-hydroxy-N-((S)-1-(4-(4-methylthiazol-5-yl)phenyl)ethyl)pyrrolidine-2-carboxamide [Compound 39]”, the IC50 in the assay with LNCaP/AR cells (setting [3]) is under 100 nM. For the same compound, the “% degradation” value at androgen receptor (AR) was “C (key: A: >80%; B: 79%-50%; C: 49%-25%; D: <25%)”.
As for `[2H]C([2H])([2H])N(C(=O)c1ccc(C#CCCCCOCC(=O)N[C@H](C(=O)N2C[C@H](O)C[C@H]2C(=O)N[C@@H](C)c2ccc(-c3scnc3C)cc2)C(C)(C)C)cc1)[C@H]1C(C)(C)[C@H](Oc2ccc(C#N)c(Cl)c2)C1(C)C` [Compound 23], the half-maximal inhibitory concentration (IC50) with LNCaP/AR cells (setting [1]) is under 100 nM. Further, on androgen receptor (AR) (setting [2]), the inhibition at 0.1 µM lay within 25 to 49%.
In the case of `CC(=O)O[C@@H]1C[C@H](C(=O)N[C@H](C)c2ccc(-c3scnc3C)cc2)N(C(=O)[C@H](NC(=O)COCCCCCNc2ccc(C(=O)NC3C[C@]4(C)O[C@@]3(C)[C@@H]3C(=O)N(c5ccc(C#N)c(Cl)c5)C(=O)[C@@H]34)c(F)c2)C(C)(C)C)C1` (stereo partly drawn) [Compound 19, (3S,5R)-1-((2R)-2-(2-((5-((4-(((3aS,4S,7S,7aR)-2-(3-chloro-4-benzonitrile)4,7-dimethyl-1,3-dioxooctahydro-1H-4,7-epoxyisoindolin-5-yl)carbamoyl)-3-fluorophenyl)amino)pentyl)oxy)acetylamino)-3,3-dimethylbutyryl)-5-(((R)-1-(4-(4-methylthiazol-5-yl)phenyl)ethyl)carbamoyl)pyrrolidin-3-yl acetate], the IC50 with LNCaP/AR cells (LNCaP/AR, 144 h) is under 100 nM. Also, the inhibition at 0.1 µM on androgen receptor (AR) (VCaP, 16 h) is under 25%.
On to “(2R,4R)-1-((S)-2-(2-((6-(2-((1R,3R)-3-(3-chloro-4-cyanophenoxy)-2,2,4,4-tetramethylcyclobutyl)-3-oxoisoindolin-5-yl)hex-5-yn-1-yl)oxy)acetylamino)-3,3-dimethylbutyryl)-4-hydroxy-N-((S)-1-(4-(4-methylthiazol-5-yl)phenyl)ethyl) pyrrolidine-2-carboxamide [Compound 5]”, for which, in the assay with LNCaP/AR cells (setting [3]), the IC50 is under 100 nM. On androgen receptor (AR) (setting [2]), the “% degradation” value is listed as “C (49%-25%)”.
As for `N#Cc1ccc(O[C@H]2CC[C@H](N3Cc4nc(N5CCC(OC6CCN(c7ccc8c(c7)C(=O)N(C7CCC(=O)NC7=O)C8=O)CC6)CC5)ccc4C3=O)CC2)cc1Cl` (stereo partly shown) [Compound 60, 2-chloro-4-(((1r,4r)-4-(2-(4-((1-(2-(2,6-dioxopiperidin-3-yl)-1,3-dioxoisoindolin-5-yl)piperidine-4-yl)oxy)piperidin-1-yl)-5-oxo-5H-pyrrolo[3,4-b]pyridin-6(7H)-yl)cyclohexyl)oxy)benzonitrile], the IC50 with LNCaP/AR cells (setting [1]) was over 1000 nM. Moreover, the inhibition at 0.1 µM at androgen receptor (AR) (setting [2]) is under 25%.
